From patent US12629365B2, “Pharmaceutical compositions of 5-HT6 receptor antagonist” (SUVEN LIFE SCIENCES LIMITED, priority 2016, dated 2026) come the findings set out here.

This series can be described thus: BCS classification. Type of series: physicochemical. The settings on record: based on our experimental results.

The structures appear in SMILES notation.

In the case of `COc1ccc2c(c1)c(CN1CCN(C)CC1)cn2S(=O)(=O)c1ccccc1Br` [Compound 1, 1-[(2-Bromophenyl)sulfonyl]-5-methoxy-3-[(4-methyl-1-piperazinyl)methyl]-1H-indole dimesylate monohydrate], the BCS classification entry is on record as “class I”.
